Test results from paper PMC9653166 (Journal of medicinal chemistry, 2022).
pEC50: −log10 of the molar value. Several values for one entry are separate records, joined by “and”; a condition that tells them apart may be missing. Identical values can stand only once. Entries after “also recorded” stand apart in the source; their conditions may differ. One block for each compound: values may come before it.

Tests used:
Sirt5 [1] = target: T1, Sirt5 (Homo sapiens, UniProt Q9NXA8); test: Coupled enzymatic desuccinylation assay, Sirt5 with CPS1-succK537 peptide; assay type: biochemical; conditions: for Effect on Sirt5 activity (in words): coupled assay, 10 and 100 μM compound
T1 sequence (Q9NXA8 34-302): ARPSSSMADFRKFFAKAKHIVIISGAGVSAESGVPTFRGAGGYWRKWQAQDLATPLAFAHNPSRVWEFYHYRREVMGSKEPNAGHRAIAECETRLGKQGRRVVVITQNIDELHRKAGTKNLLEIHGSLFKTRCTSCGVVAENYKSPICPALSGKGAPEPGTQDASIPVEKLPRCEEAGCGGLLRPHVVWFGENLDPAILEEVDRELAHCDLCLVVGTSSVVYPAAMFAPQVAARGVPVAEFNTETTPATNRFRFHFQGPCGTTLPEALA

Sirt2 = target: T2, Sirt2 (Homo sapiens, UniProt Q8IXJ6); test: Coupled enzymatic deacetylation assay, Sirt2 with α-tubulin-acK25 peptide; assay type: biochemical; conditions: for Sirt2 activation (α-tubulin-acK25 deacetylation): 100 μM compound; for Effect on Sirt2 activity (in words): coupled assay, 10 and 100 μM compound
T2 sequence (Q8IXJ6 43-356): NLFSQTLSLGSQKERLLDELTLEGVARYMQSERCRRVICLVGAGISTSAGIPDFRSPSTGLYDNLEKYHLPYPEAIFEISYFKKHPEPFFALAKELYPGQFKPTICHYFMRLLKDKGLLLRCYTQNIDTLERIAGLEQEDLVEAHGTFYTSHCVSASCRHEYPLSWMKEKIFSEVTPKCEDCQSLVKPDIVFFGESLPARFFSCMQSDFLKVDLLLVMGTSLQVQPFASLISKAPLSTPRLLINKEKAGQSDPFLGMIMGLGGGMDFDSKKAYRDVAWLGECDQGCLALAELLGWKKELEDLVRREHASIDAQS

GDH acetylation = test: GDH immunoprecipitation and Lys acetylation Western blot, MDA-MB-231 cells; assay type: cell-based, human; conditions: 50 μM
Sirt3 [2] = target: T3, Sirt3 (Homo sapiens, UniProt Q9NTG7); test: Coupled enzymatic deacetylation assay, Sirt3 with ACS2-acK642 peptide; assay type: biochemical; conditions: for Effect on Sirt3 activity (in words): coupled assay, ACS2 peptide, 10 and 100 μM compound
T3 sequence (Q9NTG7 114-380): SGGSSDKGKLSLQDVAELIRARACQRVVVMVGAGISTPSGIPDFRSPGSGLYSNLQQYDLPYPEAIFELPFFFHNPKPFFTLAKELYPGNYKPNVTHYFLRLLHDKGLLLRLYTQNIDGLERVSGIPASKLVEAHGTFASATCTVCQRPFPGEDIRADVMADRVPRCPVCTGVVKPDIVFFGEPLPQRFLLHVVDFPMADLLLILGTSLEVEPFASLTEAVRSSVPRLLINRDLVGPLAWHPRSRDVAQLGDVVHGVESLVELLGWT

Sirt3 [3] = target: T4, Sirt3 (Homo sapiens, UniProt Q9NTG7); test: Cellular SIRT3 deacetylase activity assay; assay type: cell-based; conditions: MDA-MB-231 cells, 50 and 100 μM, 3 h
T4 sequence (Q9NTG7 1-399): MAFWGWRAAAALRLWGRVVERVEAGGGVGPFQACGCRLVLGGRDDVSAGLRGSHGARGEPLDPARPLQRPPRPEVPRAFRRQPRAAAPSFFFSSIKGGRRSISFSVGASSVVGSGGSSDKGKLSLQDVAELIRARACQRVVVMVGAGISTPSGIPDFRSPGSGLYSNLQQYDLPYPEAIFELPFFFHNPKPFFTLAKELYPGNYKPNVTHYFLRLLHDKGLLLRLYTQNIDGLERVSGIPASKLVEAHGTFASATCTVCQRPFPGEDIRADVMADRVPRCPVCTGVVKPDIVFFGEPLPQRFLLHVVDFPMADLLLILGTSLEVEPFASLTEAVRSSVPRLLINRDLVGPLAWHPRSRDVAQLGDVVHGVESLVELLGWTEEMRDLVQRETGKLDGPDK

MnSOD-Lys68 acetylation = MnSOD-Lys68 acetylation Western blot in MDA-MB-231 cells; assay type: cell-based, human
[4] = tested on: mouse embryonic fibroblasts (MEFs); test: Mitochondrial mass by FACS; assay type: cell-based; conditions: 25 μM, 24 h
glutaminase (GLS) = test: GLS activity assay in MDA-MB-231 cell lysates; assay type: cell-based, human; conditions: MDA-MB-231 cells, 50 μM, 4 and 24 h
MDA-MB-231 cells = test: Ammonia level assay, MDA-MB-231 cells; assay type: cell-based, human; conditions: 50 μM, 4 and 24 h
GDH = GDH activity assay in MDA-MB-231 cell lysates; assay type: cell-based, human; conditions: wild-type MDA-MB-231 cells, 50 μM, 4 or 24 h
Sirt5 [5] = target: T5, Sirt5 (Homo sapiens, UniProt Q9NXA8); test: PDC deacylation assay: PDHA1 desuccinylation by recombinant Sirt5; assay type: biochemical; conditions: 100 μM compound, PDHA1 from porcine heart tissue
T5 sequence (Q9NXA8 37-310): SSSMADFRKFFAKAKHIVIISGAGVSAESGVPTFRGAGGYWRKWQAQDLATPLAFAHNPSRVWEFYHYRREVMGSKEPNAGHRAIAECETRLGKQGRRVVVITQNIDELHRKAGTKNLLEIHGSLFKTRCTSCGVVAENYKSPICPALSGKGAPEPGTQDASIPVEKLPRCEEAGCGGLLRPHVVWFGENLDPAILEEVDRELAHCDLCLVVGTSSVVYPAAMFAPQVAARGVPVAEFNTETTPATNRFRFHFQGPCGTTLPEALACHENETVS

GOT1 acetylation = GOT1 acetylation Western blot in pancreatic cancer cell lines; assay type: cell-based
Sirt5 [6] = target: T5, Sirt5; conditions: cited from earlier work

Structure (SMILES): CCOC(=O)C1=CN(Cc2ccccc2)C=C(C(=O)OCC)C1c1ccco1 [Compound 5]
Sirt2 activation (α-tubulin-acK25 deacetylation) (Sirt2): less than 1.5 fold
Effect on Sirt2 activity (in words) (Sirt2): weak Sirt2 activation

Structure (SMILES): CCOC(=O)C1=CN(C(=O)c2ccccc2)C=C(C(=O)OCC)C1c1ccccc1 [Compound 11]
GDH overall Lys acetylation (GDH acetylation): decreased acetylation levels
pEC50 (Sirt3 [2]): 3.70 to 4.00
Sirt3 activity (Sirt3 [2]; 100 μM compound): over 300%
FdL deacetylation (Sirt3) activity in cell lysates (Sirt3 [3]): significant increase in FdL deacetylation activity
MnSOD-Lys68 acetylation (MnSOD-Lys68 acetylation; MDA-MB-231 cells, 50 μM): decrease in MnSOD-Lys68 acetylation
MnSOD-Lys68 acetylation (MnSOD-Lys68 acetylation; Sirt3 silenced MDA-MB-231 cells, 16 h): did not decrease MnSOD-Lys68 acetylation

Structure (SMILES): CCOC(=O)C1=CN(C(=O)c2ccccc2)C=C(C(=O)OCC)C1c1ccccc1OC [Compound 18]
Effect on Sirt5 activity (in words) (Sirt5 [1]): specific Sirt5 activation

Structure (SMILES): CCOC(=O)C1=CN(Cc2ccccc2)C=C(C(=O)OCC)C1c1cnc2ccccc2c1 [Compound 10]
Effect on Sirt3 activity (in words) (Sirt3 [2]): Sirt3 activation; also recorded: comparable to the parent compound
Effect on mitochondrial mass ([4]; Sirt3 knock-out MEFs): no significant compound effect
Increase of mitochondrial mass ([4]; wild-type MEFs): about 2.5 fold

Structure (SMILES): CCOC(=O)C1=CN(Cc2ccccc2)C=C(C(=O)OCC)C1c1cccc2ccccc12 [Compound 3]
Effect on Sirt5 activity (in words) (Sirt5 [1]): Sirt5 activation

Structure (SMILES): CCOC(=O)C1=CN(C(=O)c2ccccc2)C=C(C(=O)OCC)C1c1cccc(C)c1 [Compound 16]
GLS activity in cell lysates (glutaminase (GLS)): no such effects
Ammonia accumulation (MDA-MB-231 cells): no such effects
GDH activity in cell lysates (GDH): no significant changes in GDH activity

Structure (SMILES): CCOC(=O)C1=CN(C(=O)c2ccccc2)C=C(C(=O)OCC)C1c1ccc(Cl)cc1 [Compound 14]
Sirt5 activation (CPS1-succK537 desuccinylation) (Sirt5 [1]; 10 μM compound): 1.2- to 1.5 fold

Structure (SMILES): CCOC(=O)C1=CN(Cc2ccccc2)C=C(C(=O)OCC)C1c1ccc2ccccc2c1 [Compound 4]
Sirt5 activation (CPS1-succK537 desuccinylation) (Sirt5 [1]; 10 μM compound): 1.2- to 1.5 fold
Effect on Sirt5 activity (in words) (Sirt5 [1]): Sirt5 activation

Structure (SMILES): CCOC(=O)C1=CN(Cc2ccccc2)C=C(C(=O)OCC)C1c1cc2ccccc2s1 [Compound 9]
Sirt5 activation (CPS1-succK537 desuccinylation) (Sirt5 [1]; 100 μM compound): 2- to 3 fold
Effect on Sirt5 activity (in words) (Sirt5 [1]): Sirt5 activation

Structure (SMILES): CCOC(=O)C1=CN(C(=O)c2cccc3ccccc23)C=C(C(=O)OCC)C1c1ccccc1 [Compound 21]
Sirt5 activation (CPS1-succK537 desuccinylation) (Sirt5 [1]; 100 μM compound): 2- to 3 fold
Effect on Sirt5 activity (in words) (Sirt5 [1]): specific Sirt5 activation

Structure (SMILES): CCOC(=O)C1=CN(C(=O)c2ccccc2)C=C(C(=O)OCC)C1c1cccc(Cl)c1 [Compound 13]
Sirt5-dependent desuccinylation of PDHA1 (Sirt5 [5]): clearly enhanced
Sirt5 activation (CPS1-succK537 desuccinylation) (Sirt5 [1]; 10 μM compound): 1.2- to 1.5 fold

Structure (SMILES): CCOC(=O)C1=CN(C(=O)c2ccccc2)C=C(C(=O)OCC)C1c1ccc(OC)cc1 [Compound 20]
Sirt5 activation (CPS1-succK537 desuccinylation) (Sirt5 [1]; 10 μM compound): 1.2- to 1.5 fold

Structure (SMILES): CCOC(=O)C1=CN(C(=O)c2ccccc2)C=C(C(=O)OCC)C1c1ccc(C)cc1 [Compound 17]
Effect on Sirt5 activity (in words) (Sirt5 [1]): specific Sirt5 activation

Structure (SMILES): CCOC(=O)C1=CN(C(=O)c2ccccc2)C=C(C(=O)OCC)C1c1cccc(OC)c1 [Compound 19]
GLS activity in cell lysates (glutaminase (GLS)): decreased GLS activity
Sirt5 activation (CPS1-succK537 desuccinylation) (Sirt5 [1]; 10 μM compound): 1.2- to 1.5 fold
Effect on Sirt5 activity (in words) (Sirt5 [1]): specific Sirt5 activation
Ammonia accumulation (MDA-MB-231 cells): blocked ammonia accumulation
GOT1 acetylation (GOT1 acetylation; S2–013 and Capan1 cell lines, 20 μM, 24 h): decrease GOT1 acetylation
Effect on GOT1 acetylation (GOT1 acetylation; SIRT5 knockout KPC and KPCS cell lines): negligible
In vitro Sirt5 deacetylase activity (Sirt5 [6]): increase in vitro Sirt5 deacetylase activity
GDH activity in cell lysates (GDH): decreased GDH activity

Structure (SMILES): CCOC(=O)C1=CN(Cc2ccccc2)C=C(C(=O)OCC)C1c1ccc(-c2ccccc2)cc1 [Compound 2]
Effect on Sirt5 activity (in words) (Sirt5 [1]): Sirt5 activation

Structure (SMILES): CCOC(=O)C1=CN(Cc2ccccc2)C=C(C(=O)OCC)C1c1nccs1 [Compound 7]
Effect on Sirt3 activity (in words) (Sirt3 [2]): Sirt3 activation; also recorded: comparable to the parent compound

Second part, the compound after the results:

Sirt5 activation (CPS1-succK537 desuccinylation) (Sirt5 [1]; 10 μM compound): 1.2- to 1.5 fold
Sirt5 activation (CPS1-succK537 desuccinylation) (Sirt5 [1]; 100 μM compound): 2- to 3 fold
Effect on Sirt5 activity (in words) (Sirt5 [1]): specific Sirt5 activation
Structure (SMILES): CCOC(=O)C1=CN(C(=O)c2cnccn2)C=C(C(=O)OCC)C1c1ccccc1 [Compound 23]

Sirt5 activation (CPS1-succK537 desuccinylation) (Sirt5 [1]; 100 μM compound): 3- to 3.5 fold
Structure (SMILES): CCOC(=O)C1=CN(C(=O)c2ccccc2)C=C(C(=O)OCC)C1c1ccoc1 [Compound 28, Diethyl 1-Benzoyl-4-(furan-3-yl)-1,4-dihydropyridine-3,5-dicarboxylate]

Sirt5 activation (CPS1-succK537 desuccinylation) (Sirt5 [1]; 100 μM compound): about 2 fold
Structure (SMILES): CCOC(=O)C1=CN(C(=O)c2ccccc2)C=C(C(=O)OCC)C1c1ccco1 [Compound 27, Diethyl 1-Benzoyl-4-(furan-2-yl)-1,4-dihydropyridine-3,5-dicarboxylate]

Effect on Sirt3 activity (in words) (Sirt3 [2]): comparable to the parent compound
Sirt2 activation (α-tubulin-acK25 deacetylation) (Sirt2): less than 1.5 fold
Structure (SMILES): CCOC(=O)C1=CN(C(=O)c2ccc3ccccc3c2)C=C(C(=O)OCC)C1c1ccccc1 [Compound 22]

Effect on Sirt3 activity (in words) (Sirt3 [2]): lost their effects towards Sirt3
Structure (SMILES): CCOC(=O)C1=CN(Cc2cc(OC)c(OC)c(OC)c2)C=C(C(=O)OCC)C1c1cnc2ccccc2c1 [Compound 26, Diethyl 4-(Quinolin-3-yl)-1-(3,4,5-trimethoxybenzyl)-1,4-dihydropyridine-3,5-dicarboxylate]

Effect on Sirt2 activity (in words) (Sirt2): smaller effects
Structure (SMILES): CCOC(=O)C1=CN(C(=O)c2cc(OC)c(OC)c(OC)c2)C=C(C(=O)OCC)C1c1ccco1 [Compound 40, Diethyl 4-(Furan-2-yl)-1-(3,4,5-trimethoxybenzoyl)-1,4-dihydropyridine-3,5-dicarboxylate]

Effect on Sirt3 activity (in words) (Sirt3 [2]): comparable to the parent compound
Sirt5 activation (CPS1-succK537 desuccinylation) (Sirt5 [1]; 10 μM compound): 1.2- to 1.5 fold
Sirt5 activation (CPS1-succK537 desuccinylation) (Sirt5 [1]; 100 μM compound): 2- to 3 fold and 2.5 fold
Structure (SMILES): CCOC(=O)C1=CN(C(=O)c2cnc3ccccc3n2)C=C(C(=O)OCC)C1c1ccccc1 [Compound 24]

Effect on Sirt3 activity (in words) (Sirt3 [2]): lost their effects towards Sirt3
Structure (SMILES): CCOC(=O)C1=CN(Cc2cc(OC)c(OC)c(OC)c2)C=C(C(=O)OCC)C1c1ccccc1 [Compound 25, Diethyl 4-Phenyl-1-(3,4,5-trimethoxybenzyl)-1,4-dihydropyridine-3,5-dicarboxylate]

Effect on Sirt2 activity (in words) (Sirt2): smaller effects
Structure (SMILES): CCOC(=O)C1=CN(C(=O)c2cc(OC)c(OC)c(OC)c2)C=C(C(=O)OCC)C1c1ccoc1 [Compound 41, Diethyl 4-(Furan-3-yl)-1-(3,4,5-trimethoxybenzoyl)-1,4-dihydropyridine-3,5-dicarboxylate]

Sirt5 activation (CPS1-succK537 desuccinylation) (Sirt5 [1]; 100 μM compound): 3- to 3.5 fold and 3.5 fold
Sirt2 activation (α-tubulin-acK25 deacetylation) (Sirt2): 2 fold
Structure (SMILES): CCOC(=O)C1=CN(C(=O)c2cc(OC)c(OC)c(OC)c2)C=C(C(=O)OCC)C1c1cccc(N)c1 [Compound 38, Diethyl 4-(3-Aminophenyl)-1-(3,4,5-trimethoxybenzoyl)-1,4-dihydropyridine-3,5-dicarboxylate]
